The results in this text go back to patent publication US7879914B2, “Methods for treating viral infections using polyamine analogs” (Pathlogica LLC, priority 2005, dated 2011).

Where only a bound is given, the exact number is not on record here.

One assay relates to CD14+ CD16+ monocytes. The assay can be described thus: In vitro killing of cultured rhesus macaque monocytes. In kind it is cell-based. As for the experimental part: Dose response experiments with MGBG were performed to assess its ability to kill CD14+ CD16+ monocytes in nonadherent PBMC cultures.
The test system of assay [1] is SIVmac251. The assay can be described thus: SIVmac251-infected, CD8-depleted rhesus macaques, escalating doses. Type of assay: in vivo, rhesus macaque. As for the experimental part: For these experiments, rhesus macaques were infected with SIVmac251 and depleted of CD8+ T lymphocytes by administration of a humanized CD8-depleting antibody. […] These monkeys were then treated with escalating doses of MGBG.
The animals were treated with MGBG (PA-001) beginning five days post infection (p.i.) with 200 mg/m^2 PA-001, and then treated 7 and 14 days later with 300 mg/m^2 and 400 mg/m^2, respectively of PA-001.
Rhesus macaques similar to those described in Example 9 were used for these studies. An SIVmac251-infected, CD8-depleted monkey was treated with PA-001 (MGBG) beginning five days p.i. with 200 mg/m^2 PA-001, and then treated 7 and 14 days later with 300 mg/m^2 and 400 mg/m^2, respectively of PA-001. A control monkey was SIVmac251-infected and CD8-depleted, but not treated with PA-001. Blood macrophages from control and treated monkeys were sorted every week into three subsets: CD14+/16−, CD14+/16+ and CD14−/16+ where CD14− indicates a low level of CD14 expression. Quantitative SIV PCR analysis of the sorted subsets was subsequently performed.

In assay [2] the test system is SIVmac251. The assay can be described thus: SIVmac251-infected, CD8-depleted animals, 250 mg/m^2 on alternate weeks. In kind it is in vivo, rhesus macaque. As for the experimental part:
These experiments once again used SIVmac251-infected, CD8-depleted animals, and again treatment was initiated at five days p.i. For this experiment, however, 250 mg/m^2 PA-001 (MGBG) was used and the animals were treated on alternate weeks, as is done in humans. Two animals were SIVmac251-infected, CD8-depleted, and PA-001 treated, and two were not drug treated, SIVmac251-infected, CD8-depleted controls. As of the time this study was conducted, the treated animals had received four doses of PA-001 and lived past day 55. In contrast, the non-treated animals developed AIDS and SIV encephalitis (SIVE) and in fact, one of the CD8-depleted, non-treated animals had died of AIDS and SIVE and the second non PA-001 treated animal was scheduled for sacrifice due to AIDS.
SIV-infected, CD8-depleted animals without PA-001 treatment (EJ02 and EL95) had higher counts of total monocytes (top) and the CD14+CD16+ subset (bottom). In fact, one of the untreated animals (EJ02) died of AIDS and SIVE at day 55 p.i.

Assay [3] relates to CD14/CD16+ blood macrophages from normal (uninfected) patients. As to the kind of experiment: Susceptibility assay: killing of CD14/CD16+ blood macrophages from normal patients. In kind it is cell-based, human. The note with it: FIG. 4, ex vivo. The protocol: The following procedures/protocols were used in some of the examples that follow. All steps were performed in a biological safety cabinet using Universal Precautions for handling human blood samples and standard aseptic techniques.
The PBMC for the susceptibility assays was prepared in accordance with the following procedures. A cell culture medium was prepared by mixing RPMI+10% FBS+1% sodium pyruvate and filter sterilized using a filter unit with 0.22 micron pore size. The cell pellet was then resuspended in 3 ml of the cell culture medium. The suspension was gently mixed by slowly pipetting up and down 3 times. The cells were counted using a hemacytometer and the cell density was adjusted to 1×10^6 cells/mL in the cell culture medium, followed by mixing by slowly pipetting up and down 3 times. The cells were incubated in a 50 mL sterile polypropylene tube, at 37° C. and 5% CO2 for 1-2 days. […]
Fluorescence emission measurements were obtained with a flow cytometer, using the following instrument settings in BD FACSCAN: 1) Detector: FL1=533 amps; FL2=570 amps; and FL3=550 amps; 2) Threshold=FSC 180; 3) Compensation: FL1 10.5% FL2; FL2 26.1% FL1; FL2 8.3% FL3; FL3 25.4% FL2; 4) Count=50,000 UNgated events.
The ability of polyamine analogs MGBG and CG47 to kill CD14/CD16+ blood macrophages in HIV infected and normal patients was measured. […]

In the case of `CC(/C=N/NC(=N)N)=N\NC(=N)N` [MGBG], the activated monocytes killed in the assay on CD14+ CD16+ monocytes (10 μM, five-day assay, monkey n=4) was 80%. Besides, the “decrease of CD14+ CD16+ monocytes, dose dependence” value with CD14+ CD16+ monocytes (nonadherent PBMC cultures, five days) is “dose-dependent decrease”. In addition, the “levels of CD14+CD16+ monocytes in blood” value in the assay on SIVmac251 [1] (200, 300, 400 mg/m^2 from five days p.i., by day 21 p.i.) was “depleted below detectable levels”. Further, the “perivascular cuffs and virus in the CNS” value in the assay on SIVmac251 [1] (21 days p.i., preliminary histopathological analysis) is reported as “did not have perivascular cuffs or detectable virus”. The “SIV DNA in sorted blood macrophage subsets” value with SIVmac251 [1] (after the first and second dose, quantitative SIV PCR) is on record as “no longer had any detectable SIV DNA”. For the same compound, in the assay with SIVmac251 [1] (compared to untreated animals), the “decrease in Mac387 stained monocyte/macrophage cell number in lymph node” value is reported as 50-80%. Moreover, in the assay on SIVmac251 [1] (treated animals vs untreated control), the “plasma virus versus control” value is “did not show significant differences”. Also, the “CD14+ and CD16+ monocyte populations” value with SIVmac251 [2] (detailed flow cytometry) is “significant decreases”. Besides, the “survival of treated animals” value in the assay on SIVmac251 [2] (four doses of 250 mg/m^2, alternate weeks) was > 55 days. In the assay on SIVmac251 [2] (vs non-treated animals, FIG. 11), the “absolute numbers of total monocytes” value is given as “lower absolute numbers”.

For the compound `CCNCCCNC/C=C\CNCCCNCC.Cl.Cl.Cl.Cl` [CG47, N,N′-bis(3-ethylaminopropyl)-cis-but-2-ene-1,4-diamine tetrahydrochloride], the “sensitivity of CD14/CD16+ macrophages from the normal patient” value in assay [3] is given as “essentially unaffected”.
